Broadly, the EC50 is the concentration at which the effect is half-maximal.

What all share (type): cell-based
The target of assay [1] is T1, human GLP-1 receptor (GLP-1R) (Homo sapiens, UniProt P43220).
T1 construct: expressed in transfected cells
In words: cAMP assay, human GLP-1R cells. Summed up: (§1)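 Peptide-stimulated cAMP measured by two-step HTRF after a 30 min room-temperature incubation with receptor-expressing cells (hGLP-1R, hGIPR at 1×10^5 cells/ml; hGCGR at 2×10^5 cells/ml). Duplicate dilutions; EC50 from 4-parameter logistic fit of % Delta F.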
Background: cAMP levels reflect the balance of adenylyl cyclase and phosphodiesterase activity.

The target in assay [2] is T2, human glucagon receptor (GCGR) (Homo sapiens, UniProt P47871).
T2 construct: expressed in transfected cells
In words: cAMP assay, human GCGR cells. Summed up:
as §1

The target of assay [3] is T3, human glucose-dependent insulinotropic peptide receptor (GIPR) (Homo sapiens, UniProt P48546).
T3 construct: expressed in transfected cells
T3 sequence (P48546 22-466): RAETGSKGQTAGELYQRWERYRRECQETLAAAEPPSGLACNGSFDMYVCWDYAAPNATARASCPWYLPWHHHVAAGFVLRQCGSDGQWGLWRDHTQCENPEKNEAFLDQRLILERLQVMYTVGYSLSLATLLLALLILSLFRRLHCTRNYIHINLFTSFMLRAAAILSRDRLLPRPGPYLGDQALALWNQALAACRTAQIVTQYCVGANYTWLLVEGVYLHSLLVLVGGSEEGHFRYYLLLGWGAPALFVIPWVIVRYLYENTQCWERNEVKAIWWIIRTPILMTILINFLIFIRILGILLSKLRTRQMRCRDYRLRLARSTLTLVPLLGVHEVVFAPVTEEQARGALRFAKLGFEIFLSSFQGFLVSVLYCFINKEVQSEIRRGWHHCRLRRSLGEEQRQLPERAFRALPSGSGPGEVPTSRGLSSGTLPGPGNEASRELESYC
In words: cAMP assay, human GIPR cells. Summed up:
as §1

The next assay has as its target T4, GLP-1R (INS1e assay) (Rattus norvegicus, UniProt P32301).
T4 construct: endogenous in cells; host or cells: INS-1E cells
T4 sequence (P32301 22-463): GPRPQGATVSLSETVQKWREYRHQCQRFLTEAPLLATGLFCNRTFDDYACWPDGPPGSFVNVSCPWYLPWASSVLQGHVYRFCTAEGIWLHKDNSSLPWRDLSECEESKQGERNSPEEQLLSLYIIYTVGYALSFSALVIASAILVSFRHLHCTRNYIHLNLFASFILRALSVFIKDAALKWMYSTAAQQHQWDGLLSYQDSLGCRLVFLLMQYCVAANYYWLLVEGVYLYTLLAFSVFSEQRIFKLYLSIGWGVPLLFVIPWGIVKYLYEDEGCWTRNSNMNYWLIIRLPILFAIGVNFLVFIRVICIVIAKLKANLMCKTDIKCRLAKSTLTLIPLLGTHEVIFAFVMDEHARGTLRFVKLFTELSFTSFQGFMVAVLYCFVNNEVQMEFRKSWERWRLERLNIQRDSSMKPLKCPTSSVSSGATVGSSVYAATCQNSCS
In words: INS1e assay, cAMP activity at GLP-1R. Summed up:
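It pairs cAMP-d2 acceptor with anti-cAMP cryptate donor, both prepared 1/20 in conjugate/lysis buffer, applied as a two-step protocol.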

Where [4] appears, read: tris-lipidated peptides, mean of n1 and n2, read-out: Primary assay EC50 Mean pM GLP-1R.
Where [5] appears, read: tris-lipidated peptides, replicate n1, read-out: Primary assay EC50 GLP-1R n1.
Setting [6] is: tris-lipidated peptides, replicate n2, read-out: Primary assay EC50 GLP-1R n2.
Where [7] appears, read: tris-lipidated peptides, first replicate, read-out: Primary assay EC50 Gluc-R (n1).
The mark [8] stands for this setting: tris-lipidated peptides, mean of n1 and n2, read-out: INS1e assay EC50 Mean pM GLP-1R.
[9] abbreviates: tris-lipidated peptides, replicate n1, read-out: INS1e assay EC50 GLP-1R n1.
The mark [10] stands for this setting: tris-lipidated peptides, replicate n2, read-out: INS1e assay EC50 GLP-1R n2.
The mark [11] stands for this setting: tris-lipidated peptides, second replicate, read-out: Primary assay EC50 GIP-R (n2).

Where two headings read alike, the source gives them in different places. Numbered stars: 1 amine (or outer) side, 2 acyl side, 3 side chain; on linkers, the order of the positions; unused ones are H or OH. Square brackets hold non-standard residues; d marks the D form. Side chains are listed from the residue outwards. Peptide text beside a SMILES is read from it. * marks the point of attachment. C18 diacid = O=C(O)CCCCCCCCCCCCCCCCC(=O)*; γGlu = O=C(O)[C@H](CCC(=O)[*:2])N[*:1]; αMeF = C[C@](N)(Cc1ccccc1)C(=O)O; αMeK = C[C@](N)(CCCCN)C(=O)O; Lauroyl = CCCCCCCCCCCC(=O)*; αMeS = C[C@](N)(CO)C(=O)O; AEEA = NCCOCCOCC(=O)O; Aib = CC(C)(N)C(=O)O

T2 sequence (P47871 26-477): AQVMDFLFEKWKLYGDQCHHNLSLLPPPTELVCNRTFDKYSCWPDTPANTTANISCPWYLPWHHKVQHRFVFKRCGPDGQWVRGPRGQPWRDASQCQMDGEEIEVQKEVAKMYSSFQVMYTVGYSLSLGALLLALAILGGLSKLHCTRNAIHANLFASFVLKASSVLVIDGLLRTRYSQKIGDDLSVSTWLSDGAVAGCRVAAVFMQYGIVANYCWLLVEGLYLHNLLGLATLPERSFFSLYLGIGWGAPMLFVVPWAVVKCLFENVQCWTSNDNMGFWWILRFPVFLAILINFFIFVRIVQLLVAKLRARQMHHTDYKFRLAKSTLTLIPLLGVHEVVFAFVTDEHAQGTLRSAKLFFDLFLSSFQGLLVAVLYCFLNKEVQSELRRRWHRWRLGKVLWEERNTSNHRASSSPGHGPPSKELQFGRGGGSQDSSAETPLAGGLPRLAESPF
T1 sequence (P43220 24-463): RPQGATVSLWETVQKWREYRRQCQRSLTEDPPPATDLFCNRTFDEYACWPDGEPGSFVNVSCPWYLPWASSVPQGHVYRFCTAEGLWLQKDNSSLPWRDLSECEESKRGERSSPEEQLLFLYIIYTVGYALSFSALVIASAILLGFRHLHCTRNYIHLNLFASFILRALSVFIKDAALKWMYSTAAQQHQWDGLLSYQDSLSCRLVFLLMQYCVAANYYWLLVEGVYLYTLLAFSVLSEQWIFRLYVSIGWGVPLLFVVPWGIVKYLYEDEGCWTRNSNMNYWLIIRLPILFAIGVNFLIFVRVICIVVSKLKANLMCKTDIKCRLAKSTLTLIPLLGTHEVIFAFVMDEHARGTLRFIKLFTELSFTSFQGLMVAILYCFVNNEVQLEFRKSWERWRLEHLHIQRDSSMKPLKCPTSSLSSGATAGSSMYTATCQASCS

For `CC[C@H](C)[C@H](NC(=O)[C@](C)(Cc1ccccc1)NC(=O)[C@H](CCC(=O)O)NC(=O)[C@](C)(CCCCN)NC(=O)[C@H](C)NC(=O)[C@H](CCCCNC(=O)COCCOCCNC(=O)COCCOCCNC(=O)CC[C@H](NC(=O)CCCCCCCCCCCCCCCCC(=O)O)C(=O)O)NC(=O)[C@H](CCC(=O)O)NC(=O)CNC(=O)[C@H](CCC(=O)O)NC(=O)[C@H](CC(C)C)NC(=O)[C@](C)(Cc1ccccc1)NC(=O)[C@H](CO)NC(=O)[C@](C)(CO)NC(=O)[C@@H](NC(=O)[C@H](CC(=O)O)NC(=O)[C@H](CO)NC(=O)[C@@H](NC(=O)[C@](C)(Cc1ccccc1)NC(=O)[C@H](CO)NC(=O)CNC(=O)[C@H](CCC(=O)O)NC(=O)C(C)(C)NC(=O)[C@@H](N)Cc1c[nH]cn1)[C@@H](C)O)C(C)C)C(=O)N[C@@H](C)C(=O)N[C@@](C)(Cc1ccccc1)C(=O)N[C@H](C(=O)N[C@H](C(=O)N[C@@](C)(CCCCN)C(=O)NCC(=O)NCC(N)=O)C(C)C)C(C)C` [compound 111] (H-H[Aib]EGS[αMeF]TSDV[αMeS]S[αMeF]LEGEK([AEEA-AEEA-γGlu-C18 diacid])A[αMeK]E[αMeF]IA[αMeF]VV[αMeK]GG-NH2), the EC50 in assay [1] (cAMP assay, first determination (n1), read-out: Primary assay EC50 GLP-1R n1) is 18 pM; in assay [2] (cAMP assay, first determination (n1), read-out: Primary assay EC50 Gluc-R (n1)), not below 25 nM; in assay [2] (cAMP assay, second determination (n2), read-out: Primary assay EC50 Gluc-R (n2)), not below 25 nM; in assay [3] (cAMP assay, first determination (n1), read-out: Primary assay EC50 GIP-R (n1)), not below 25 nM; in assay [3] (cAMP assay, second determination (n2), read-out: Primary assay EC50 GIP-R (n2)), not below 25 nM; on GLP-1R (INS1e assay) (mono-lipidated peptides, mean of n1 and n2, read-out: INS1e assay EC50 Mean pM GLP-1R), 806 pM. For the same compound, the EC50 on GLP-1R (INS1e assay) (mono-lipidated peptides, replicate n1, read-out: INS1e assay EC50 GLP-1R n1) came out at 501 pM; on GLP-1R (INS1e assay) (mono-lipidated peptides, replicate n2, read-out: INS1e assay EC50 GLP-1R n2), 1110 pM.
As for `CCCCCCCCCCCC(=O)N[C@@H](CCC(=O)NCCOCCOCC(=O)NCCOCCOCC(=O)NCCCC[C@H](NC(=O)[C@H](CO)NC(=O)[C@](C)(CO)NC(=O)[C@@H](NC(=O)[C@H](CC(=O)O)NC(=O)[C@H](CO)NC(=O)[C@@H](NC(=O)[C@](C)(Cc1ccccc1)NC(=O)[C@H](CO)NC(=O)CNC(=O)[C@H](CCC(=O)O)NC(=O)C(C)(C)NC(=O)[C@@H](N)Cc1c[nH]cn1)[C@@H](C)O)C(C)C)C(=O)N[C@@H](CC(C)C)C(=O)N[C@@H](CCC(=O)O)C(=O)NCC(=O)N[C@@H](CCC(=O)O)C(=O)N[C@@H](C)C(=O)N[C@@H](C)C(=O)N[C@@](C)(CCCCN)C(=O)N[C@@H](CCCCNC(=O)COCCOCCNC(=O)COCCOCCNC(=O)CC[C@H](NC(=O)CCCCCCCCCCC)C(=O)O)C(=O)N[C@@H](Cc1ccccc1)C(=O)N[C@H](C(=O)N[C@@H](C)C(=O)N[C@@H](Cc1ccccc1)C(=O)N[C@@H](CCCCNC(=O)COCCOCCNC(=O)COCCOCCNC(=O)CC[C@H](NC(=O)CCCCCCCCCCC)C(=O)O)C(=O)N[C@H](C(=O)N[C@@H](CCC(=O)O)C(=O)NCC(=O)NCC(N)=O)C(C)C)[C@@H](C)CC)C(=O)O` [compound 482] (H-H[Aib]EGS[αMeF]TSDV[αMeS]SK([AEEA-AEEA-γGlu-Lauroyl])LEGEAA[αMeK]K([AEEA-AEEA-γGlu-Lauroyl])FIAFK([AEEA-AEEA-γGlu-Lauroyl])VEGG-NH2), the half-maximal effective concentration (EC50) turned out to be 36.3 pM in assay [1] (setting [4]); 28.3 pM in assay [1] (setting [5]); 44.2 pM in assay [1] (setting [6]); 20 nM in assay [2] (setting [7]); 20 nM in assay [3] (tris-lipidated peptides, first replicate, read-out: Primary assay EC50 GIP-R (n1)); 5860 pM at GLP-1R (INS1e assay) (setting [8]). Moreover, the EC50 on GLP-1R (INS1e assay) (setting [9]) amounted to 8570 pM; at GLP-1R (INS1e assay) (setting [10]), 3150 pM.
For the compound `CCCCCCCCCCCC(=O)N[C@@H](CCC(=O)NCCOCCOCC(=O)NCCOCCOCC(=O)NCCCC[C@H](NC(=O)[C@H](CO)NC(=O)[C@](C)(CO)NC(=O)[C@@H](NC(=O)[C@H](CC(=O)O)NC(=O)[C@H](CO)NC(=O)[C@@H](NC(=O)[C@](C)(Cc1ccccc1)NC(=O)[C@H](CO)NC(=O)CNC(=O)[C@H](CCC(=O)O)NC(=O)C(C)(C)NC(=O)[C@@H](N)Cc1c[nH]cn1)[C@@H](C)O)C(C)C)C(=O)N[C@@H](CC(C)C)C(=O)N[C@@H](CCC(=O)O)C(=O)NCC(=O)N[C@@H](CCC(=O)O)C(=O)N[C@@H](C)C(=O)N[C@@H](C)C(=O)N[C@@](C)(CCCCN)C(=O)N[C@@H](CCCCNC(=O)COCCOCCNC(=O)COCCOCCNC(=O)CC[C@H](NC(=O)CCCCCCCCCCC)C(=O)O)C(=O)N[C@@H](Cc1ccccc1)C(=O)N[C@H](C(=O)N[C@@H](CCCCNC(=O)COCCOCCNC(=O)COCCOCCNC(=O)CC[C@H](NC(=O)CCCCCCCCCCC)C(=O)O)C(=O)N[C@@H](Cc1ccccc1)C(=O)N[C@H](C(=O)N[C@H](C(=O)N[C@@H](CCC(=O)O)C(=O)NCC(=O)NCC(N)=O)C(C)C)C(C)C)[C@@H](C)CC)C(=O)O` [compound 450] (H-H[Aib]EGS[αMeF]TSDV[αMeS]SK([AEEA-AEEA-γGlu-Lauroyl])LEGEAA[αMeK]K([AEEA-AEEA-γGlu-Lauroyl])FIK([AEEA-AEEA-γGlu-Lauroyl])FVVEGG-NH2; N-terminus assumed), the EC50 in assay [1] (setting [4]) is 49 pM; in assay [1] (setting [5]) it was 28 pM; in assay [1] (setting [6]), 70 pM; in assay [2] (tris-lipidated peptides, second replicate, read-out: Primary assay EC50 Gluc-R (n2)), 19.9 nM; in assay [3] (setting [11]) it was 19.9 nM; at GLP-1R (INS1e assay) (setting [8]), 6810 pM. Further, the EC50 at GLP-1R (INS1e assay) (setting [9]) is 6380 pM; on GLP-1R (INS1e assay) (setting [10]), 7240 pM.
As for `CCCCCCCCCCCC(=O)N[C@@H](CCC(=O)NCCOCCOCC(=O)NCCOCCOCC(=O)NCCCC[C@H](NC(=O)[C@H](C)NC(=O)[C@@H](NC(=O)[C@H](Cc1ccccc1)NC(=O)[C@H](CCCCNC(=O)COCCOCCNC(=O)COCCOCCNC(=O)CC[C@H](NC(=O)CCCCCCCCCCC)C(=O)O)NC(=O)[C@](C)(CCCCN)NC(=O)[C@H](C)NC(=O)[C@H](C)NC(=O)[C@H](CCC(=O)O)NC(=O)CNC(=O)[C@H](CCC(=O)O)NC(=O)[C@H](CC(C)C)NC(=O)[C@H](Cc1ccc(O)cc1)NC(=O)[C@H](CO)NC(=O)[C@H](CO)NC(=O)[C@H](CCCCNC(=O)COCCOCCNC(=O)COCCOCCNC(=O)CC[C@H](NC(=O)CCCCCCCCCCC)C(=O)O)NC(=O)[C@H](CC(=O)O)NC(=O)[C@H](CO)NC(=O)[C@@H](NC(=O)[C@](C)(Cc1ccccc1)NC(=O)[C@H](CO)NC(=O)CNC(=O)[C@H](CCC(=O)O)NC(=O)C(C)(C)NC(=O)[C@@H](N)Cc1c[nH]cn1)[C@@H](C)O)[C@@H](C)CC)C(=O)N[C@H](C(=O)N[C@H](C(=O)N[C@@H](CCC(=O)O)C(=O)NCC(=O)NCC(N)=O)C(C)C)C(C)C)C(=O)O` [compound 458] (H-H[Aib]EGS[αMeF]TSDK([AEEA-AEEA-γGlu-Lauroyl])SSYLEGEAA[αMeK]K([AEEA-AEEA-γGlu-Lauroyl])FIAK([AEEA-AEEA-γGlu-Lauroyl])VVEGG-NH2; N-terminus assumed), the EC50 in assay [1] (setting [4]) was determined as 41.4 pM; in assay [1] (setting [5]), 36.3 pM; in assay [1] (setting [6]), 46.4 pM; in assay [2] (setting [7]), 20 nM; in assay [3] (setting [11]) it was 20 nM; on GLP-1R (INS1e assay) (setting [8]), 3370 pM. Moreover, the values for the EC50 at GLP-1R (INS1e assay) (setting [9]) and on GLP-1R (INS1e assay) (setting [10]) were 3070 pM and 3670 pM, respectively.

The values are drawn from patent US10414811B2, “Protease-resistant lipidated GLP-1 analogs” (MEDIMMUNE LIMITED, priority 2015, dated 2019).
